Measurements from the supplement of paper PMC11208160.

test: recombinant barcode read abundance after kanamycin selection (control-corrected) (log10(CPM+1)); higher = more efficient recombination; sequences stand for … in AGTGCAGAGAAAATCGGCCAGTTTTCTCTGCCTGCAGTCCGCATGCCGT…AGATTTATGCAGCGGACTGCCTTTCTCCCAAAGTGATAAACCGGACAGTATCATGGACCGGTTTTCCCGGTAATCCGTATTTGCAAGGTTGGTTTCACT; site = the 11-nt target
In short: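 Pooled oligos, each joining a target to an IS621 bridge RNA target-binding loop, were cloned and co-electroporated with a donor plasmid into E. coli. Selective plates carried chloramphenicol/ampicillin/kanamycin and 0.1 mM IPTG, while chloramphenicol/ampicillin LB agar served as control, with two replicates of each. Recombination efficiency rests on averaged, control-corrected counts per million of barcodes at recombinant junctions, shown as log10(CPM+1).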
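Note: IS621 recombinase and bridge RNA in Escherichia coli cells.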

Sequence	recombinant barcode read abundance (log10)
GACATCGCTTGGGTTCTAACCTGTTGCCT (site GACATCTCTAG)	0.641
AACCCACCTTGGGTTCTAACCTGTTGCCT (site TACCCACCTAG)	0.997
ATAGCTACTTGGGTTCTAACCTGTTGCCT (site ATAGCGACTAG)	0.0534
TCGTTTCCTTGGGTTCTAACCTGTTGCAT (site TCGTTTCCTAT)	0.0275
TGGAGCCCTTGGGTTCTAACCTGTTGCAG (site TGGAGCCCTTT)	0.0206
TAGTGCTCTTGGGTTCTAACCTGTTGCCT (site TAGTGCTCTCG)	0.434
GCGGACGCTTGGGTTCTAACCTGTTGCCT (site CCGGACCCTAG)	0.0428
AGAAATTCTTGGGTTCTAACCTGTTGCCT (site AGGAATTCTAG)	0.111
GTACCTACTTGGGTTCTAACCTGTTGCTA (site GTACCTACTTA)	1.33
CTCCAGGCTTGGGTTCTAACCTGTTGCGG (site CTCAAGGCTAC)	0.427
GATAGTCCTTGGGTTCTAACCTGTTGCCT (site GATAGTTCTAG)	0.159
GTACTACCTTGGGTTCTAACCTGTTGCCG (site GTACTACCTCG)	1.14
CTAATTGCTTGGGTTCTAACCTGTTGCCT (site CCAATTGCTAG)	0.201
ACAAAGCCTTGGGTTCTAACCTGTTGCCT (site ACAAATCCTAG)	0.0552
TATGTGGCTTGGGTTCTAACCTGTTGCCT (site TATGAGGCTAG)	0.551
GCGACGCCTTGGGTTCTAACCTGTTGCCT (site ACGAAGCCTAG)	0.0187
GGCTGTCCTTGGGTTCTAACCTGTTGCGT (site GGCTGTCCTAC)	0.751
TTGAAGCCTTGGGTTCTAACCTGTTGCCT (site ATGAAGCCTAG)	0.41
GATGGAGCTTGGGTTCTAACCTGTTGCGG (site GATGGAGCTCC)	2.57
ACATTTCCTTGGGTTCTAACCTGTTGCCT (site AAATTTCCTAG)	0.0832
TGGCAGGCTTGGGTTCTAACCTGTTGCCT (site TGGCAGCCTAG)	0.00869
TCCAATACTTGGGTTCTAACCTGTTGCCG (site TCCAATACTCG)	0.269

Sequence	recombinant barcode read abundance (log10)
CGTACTACTTGGGTTCTAACCTGTTGCAC (site CGTACTACTGT)	0.0785
GTCGCGCCTTGGGTTCTAACCTGTTGCCT (site GTCGCGCCTAG)	0.271
GTCATGGCTTGGGTTCTAACCTGTTGCCT (site GTCAGGGCTAG)	0.0945
GATGCACCTTGGGTTCTAACCTGTTGCGG (site GATGCACCTCC)	2.36
TCCGAGACTTGGGTTCTAACCTGTTGCCG (site TCCGAGACTTG)	0.0796
CCGCGCTCTTGGGTTCTAACCTGTTGCTG (site CCGCGCTCTCA)	0.379
TACCTGCCTTGGGTTCTAACCTGTTGCGT (site GCCCTGCCTAC)	0.0159
AGTCGGACTTGGGTTCTAACCTGTTGCAC (site AGTCGGACTGT)	0.846
GTTGCCACTTGGGTTCTAACCTGTTGCCT (site GTCGCCACTAG)	0.0124
GCGATCCCTTGGGTTCTAACCTGTTGCTT (site CATGAGACTCC)	0.0103
GTCGGAACTTGGGTTCTAACCTGTTGCCT (site GTCGGTACTAG)	0.0137
GGATAGCCTTGGGTTCTAACCTGTTGCCT (site AGATAGCCTAG)	0.902
CGCAGCACTTGGGTTCTAACCTGTTGCCT (site AGCAGCACTAG)	0.067
CTGATGACTTGGGTTCTAACCTGTTGCCT (site CTGATCACTAG)	0.247
CCGCCAGCTTGGGTTCTAACCTGTTGCCT (site CCGCCAGCTAG)	0.171
TCACATTCTTGGGTTCTAACCTGTTGCCT (site TCAAATTCTAG)	0.228
CCGACTCCTTGGGTTCTAACCTGTTGCCT (site CCGAGTCCTAG)	0
TGGTGTCCTTGGGTTCTAACCTGTTGCCT (site TGGTGTCCTAG)	1.58
AGCCTGACTTGGGTTCTAACCTGTTGCCT (site AGCCTGGCTAG)	0.332
AGAGGTCCTTGGGTTCTAACCTGTTGCCT (site TGAGGGCCTAG)	0.169
ACGAGCCCTTGGGTTCTAACCTGTTGCCA (site ACGAGCCCTTG)	0.666
TGGACCACTTGGGTTCTAACCTGTTGCCT (site TGGATCACTAG)	0.0342

Sequence	recombinant barcode read abundance (log10)
CCACCGTCTTGGGTTCTAACCTGTTGCCT (site CCACGGTCTAG)	0.177
GGAACGACTTGGGTTCTAACCTGTTGCGT (site GGAACGACTAC)	1.93
GTCTATACTTGGGTTCTAACCTGTTGCCT (site GTATATACTAG)	0.168
TTGTCTCCTTGGGTTCTAACCTGTTGCCT (site CTGTCTCCTAG)	0.0237
CTTTCGTCTTGGGTTCTAACCTGTTGCCT (site CTTTCACCTAG)	0.0235
ACAAATACTTGGGTTCTAACCTGTTGCGG (site CGTTCACCTAT)	0.11
CGCTCGACTTGGGTTCTAACCTGTTGCCT (site CGCTCGACTAG)	0.0944
GAGTCGGCTTGGGTTCTAACCTGTTGCTT (site GAGACGGCTAA)	0.23
GCTCCGTCTTGGGTTCTAACCTGTTGCTT (site GCTCCGTCTAA)	0.644
TAGTGTACTTGGGTTCTAACCTGTTGCCT (site TAGTGTGCTAG)	0.221
GACCGCGCTTGGGTTCTAACCTGTTGCCT (site GACCGCGCTAG)	1.05
GGCCCGCCTTGGGTTCTAACCTGTTGCCT (site GGCCCGCCTAG)	0.734
TCGTACCCTTGGGTTCTAACCTGTTGCAA (site TCGTACCCTTT)	0.143
CCTCATTCTTGGGTTCTAACCTGTTGCTT (site CCTCACTCTAA)	0
ATAAAGCCTTGGGTTCTAACCTGTTGCCT (site ATAAGGCCTAG)	0.0177
ACATTTCCTTGGGTTCTAACCTGTTGCCT (site ACATTTCCTAG)	0.1
GCGTCTCCTTGGGTTCTAACCTGTTGCAT (site GCGCCTCCTAT)	0.012
AAGATACCTTGGGTTCTAACCTGTTGCTT (site AAGATACCTCA)	0.36
AGTTCGACTTGGGTTCTAACCTGTTGCCT (site ACTTCGACTAG)	0.0163
TAGTGTACTTGGGTTCTAACCTGTTGCCT (site TAGTGTCCTAG)	0.16
GCTTCGTCTTGGGTTCTAACCTGTTGCCT (site GCCTCGTCTAG)	0.129
GTCGTCTCTTGGGTTCTAACCTGTTGCCT (site GTCGTCGCTAG)	0.136
